Reference: ChEMBL document CHEMBL4002641, “Indolyl-naphthyl-maleimides as potent and selective inhibitors of protein kinase C-α/β” (Bioorg Med Chem Lett, 2017)

How the values were obtained:
[1] = biological target: Protein kinase C delta type (Homo sapiens, UniProt Q05655); assay: Inhibition of PKCdelta (unknown origin) after 60 mins in presence of [gamma33P]ATP by scintillation proximity assay
[2] = biological target: Protein kinase C eta type (Homo sapiens, UniProt P24723); assay: Inhibition of PKCeta (unknown origin) after 60 mins in presence of [gamma33P]ATP by scintillation proximity assay
Protein kinase C eta type, sequence (P24723 whole entry): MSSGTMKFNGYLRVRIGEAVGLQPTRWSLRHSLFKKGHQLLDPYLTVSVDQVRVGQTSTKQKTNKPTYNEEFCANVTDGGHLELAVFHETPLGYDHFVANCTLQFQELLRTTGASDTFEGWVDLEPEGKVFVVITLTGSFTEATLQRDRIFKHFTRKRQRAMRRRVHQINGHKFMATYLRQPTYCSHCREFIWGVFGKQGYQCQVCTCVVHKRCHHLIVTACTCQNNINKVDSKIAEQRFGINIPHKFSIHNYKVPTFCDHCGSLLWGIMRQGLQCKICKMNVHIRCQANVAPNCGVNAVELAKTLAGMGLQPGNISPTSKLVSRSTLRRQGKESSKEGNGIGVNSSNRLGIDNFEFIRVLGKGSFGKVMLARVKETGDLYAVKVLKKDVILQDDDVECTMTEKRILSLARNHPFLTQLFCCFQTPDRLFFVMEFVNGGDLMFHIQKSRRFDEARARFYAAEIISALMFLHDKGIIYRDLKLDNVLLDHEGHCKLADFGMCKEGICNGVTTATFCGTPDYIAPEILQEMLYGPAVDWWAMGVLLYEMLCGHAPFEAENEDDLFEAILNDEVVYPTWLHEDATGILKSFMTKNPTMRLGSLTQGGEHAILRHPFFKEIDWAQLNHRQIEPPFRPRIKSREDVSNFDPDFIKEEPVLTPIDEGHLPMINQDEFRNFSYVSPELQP

[3] = biological target: T1, Protein kinase C beta type (Homo sapiens, UniProt P05771); assay: Inhibition of PKCbeta1 (unknown origin) after 60 mins in presence of [gamma33P]ATP by scintillation proximity assay
T1 sequence (P05771 whole entry): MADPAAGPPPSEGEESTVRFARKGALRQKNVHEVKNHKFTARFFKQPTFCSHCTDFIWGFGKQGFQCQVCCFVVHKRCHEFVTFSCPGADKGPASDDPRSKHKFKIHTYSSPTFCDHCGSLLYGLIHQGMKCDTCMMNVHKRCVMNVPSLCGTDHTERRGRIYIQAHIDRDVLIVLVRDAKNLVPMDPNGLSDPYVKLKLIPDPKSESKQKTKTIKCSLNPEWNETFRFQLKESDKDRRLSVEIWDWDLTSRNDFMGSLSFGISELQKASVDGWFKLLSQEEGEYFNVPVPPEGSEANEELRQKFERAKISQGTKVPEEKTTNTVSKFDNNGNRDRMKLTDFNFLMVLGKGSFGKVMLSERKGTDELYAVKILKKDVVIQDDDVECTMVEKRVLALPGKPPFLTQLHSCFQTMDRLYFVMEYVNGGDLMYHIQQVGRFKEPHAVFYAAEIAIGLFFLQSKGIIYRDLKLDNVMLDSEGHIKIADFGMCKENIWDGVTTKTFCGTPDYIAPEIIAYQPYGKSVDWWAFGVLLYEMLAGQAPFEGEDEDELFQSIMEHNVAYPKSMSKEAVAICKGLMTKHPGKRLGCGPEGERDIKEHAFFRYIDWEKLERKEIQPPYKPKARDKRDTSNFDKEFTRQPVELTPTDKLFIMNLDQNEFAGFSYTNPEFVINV

[4] = biological target: T2, Protein kinase C theta type (Homo sapiens, UniProt Q04759); assay: Inhibition of PKCtheta (unknown origin) after 60 mins in presence of [gamma33P]ATP by scintillation proximity assay
T2 sequence (Q04759 whole entry): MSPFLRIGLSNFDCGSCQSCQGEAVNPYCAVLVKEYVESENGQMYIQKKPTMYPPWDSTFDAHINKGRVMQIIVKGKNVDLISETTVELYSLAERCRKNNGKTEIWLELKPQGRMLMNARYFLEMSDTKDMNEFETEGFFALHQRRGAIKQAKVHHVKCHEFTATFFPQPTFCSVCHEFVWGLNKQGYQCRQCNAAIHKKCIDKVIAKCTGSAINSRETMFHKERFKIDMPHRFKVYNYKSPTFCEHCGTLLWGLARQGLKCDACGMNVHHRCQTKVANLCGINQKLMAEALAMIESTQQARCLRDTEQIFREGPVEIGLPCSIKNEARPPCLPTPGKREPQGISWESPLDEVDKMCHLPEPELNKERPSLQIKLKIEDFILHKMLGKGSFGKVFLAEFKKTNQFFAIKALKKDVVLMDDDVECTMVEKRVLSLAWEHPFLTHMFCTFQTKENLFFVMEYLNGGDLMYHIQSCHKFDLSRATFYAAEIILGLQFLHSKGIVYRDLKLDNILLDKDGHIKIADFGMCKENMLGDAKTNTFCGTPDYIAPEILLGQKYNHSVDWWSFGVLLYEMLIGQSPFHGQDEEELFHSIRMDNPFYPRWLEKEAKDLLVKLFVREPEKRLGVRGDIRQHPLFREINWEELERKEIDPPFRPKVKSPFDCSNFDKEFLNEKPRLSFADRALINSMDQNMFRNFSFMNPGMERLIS

[5] = biological target: T3, Protein kinase C alpha type (Homo sapiens, UniProt P17252); assay: Inhibition of PKCalpha (unknown origin) after 60 mins in presence of [gamma33P]ATP by scintillation proximity assay
[6] = biological target: T4, Protein kinase C epsilon type (Homo sapiens, UniProt Q02156); assay: Inhibition of PKCepsilon (unknown origin) after 60 mins in presence of [gamma33P]ATP by scintillation proximity assay
T4 sequence (Q02156 whole entry): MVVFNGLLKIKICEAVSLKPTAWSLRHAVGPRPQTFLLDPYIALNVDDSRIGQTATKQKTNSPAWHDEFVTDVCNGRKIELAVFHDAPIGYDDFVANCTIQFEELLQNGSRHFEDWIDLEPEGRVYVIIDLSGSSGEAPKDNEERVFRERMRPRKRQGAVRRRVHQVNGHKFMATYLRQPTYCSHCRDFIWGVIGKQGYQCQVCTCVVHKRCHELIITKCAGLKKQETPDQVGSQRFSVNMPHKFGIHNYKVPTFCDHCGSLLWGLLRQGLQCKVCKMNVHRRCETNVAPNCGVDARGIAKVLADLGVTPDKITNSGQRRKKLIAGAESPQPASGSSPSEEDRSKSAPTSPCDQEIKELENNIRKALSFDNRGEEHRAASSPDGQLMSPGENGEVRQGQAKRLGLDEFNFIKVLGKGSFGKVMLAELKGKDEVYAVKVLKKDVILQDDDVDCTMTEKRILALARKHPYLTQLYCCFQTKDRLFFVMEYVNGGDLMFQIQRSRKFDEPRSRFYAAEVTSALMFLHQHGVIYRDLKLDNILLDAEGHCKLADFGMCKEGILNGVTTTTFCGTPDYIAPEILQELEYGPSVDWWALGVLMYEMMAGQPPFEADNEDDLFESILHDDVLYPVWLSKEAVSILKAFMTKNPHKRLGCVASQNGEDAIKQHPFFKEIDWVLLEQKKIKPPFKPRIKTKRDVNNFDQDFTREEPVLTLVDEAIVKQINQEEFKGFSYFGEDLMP

[7] = Aqueous solubility of the compound; format: physicochemical; conditions: buffer
[8] = biological target: T2, Protein kinase C theta type; assay: Inhibition of PKCtheta in human Jurkat T cells assessed as reduction in anti-CD3/CD28 antibody-induced T-cell activation by measuring decrease in IL-2 secretion after 5 hrs by luciferase reporter gene assay; format: cell-based
PBMC = assay: Inhibition of human PBMC proliferation assessed as decrease in [3H]-TdR uptake after 6 days by mixed lymphocyte reaction assay; format: functional, cell-based
[9] = biological target: T3, Protein kinase C alpha type; assay: Reversible competitive inhibition of PKCalpha (unknown origin)
[10] = biological target: T5, Cyclin-dependent kinase 2 (Homo sapiens, UniProt P24941); assay: Inhibition of CDK2 (unknown origin) at 1 uM
[11] = biological target: T1, Protein kinase C beta type; assay: Reversible competitive inhibition of PKCbeta1 (unknown origin)
[12] = biological target: T5, Cyclin-dependent kinase 2; assay: Inhibition of CDK2 (unknown origin)

Protein kinase C delta type, sequence (Q05655 whole entry): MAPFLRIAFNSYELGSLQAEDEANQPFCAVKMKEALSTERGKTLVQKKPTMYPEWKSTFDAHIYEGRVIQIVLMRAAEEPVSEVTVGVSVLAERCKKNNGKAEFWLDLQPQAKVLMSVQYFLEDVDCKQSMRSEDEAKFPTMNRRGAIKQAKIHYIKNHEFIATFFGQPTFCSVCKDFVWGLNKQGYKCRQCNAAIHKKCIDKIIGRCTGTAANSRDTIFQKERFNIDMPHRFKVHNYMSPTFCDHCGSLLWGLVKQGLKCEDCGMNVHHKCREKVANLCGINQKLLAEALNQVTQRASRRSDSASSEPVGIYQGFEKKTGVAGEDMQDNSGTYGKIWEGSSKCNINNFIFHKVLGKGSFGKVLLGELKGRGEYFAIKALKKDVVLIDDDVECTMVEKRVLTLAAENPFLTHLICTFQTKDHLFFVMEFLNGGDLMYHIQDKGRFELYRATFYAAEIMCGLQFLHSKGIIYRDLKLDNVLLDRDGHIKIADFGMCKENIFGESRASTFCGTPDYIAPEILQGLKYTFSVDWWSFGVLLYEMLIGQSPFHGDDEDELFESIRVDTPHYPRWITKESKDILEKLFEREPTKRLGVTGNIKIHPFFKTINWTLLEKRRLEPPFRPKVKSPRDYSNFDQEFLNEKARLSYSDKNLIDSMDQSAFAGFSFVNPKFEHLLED

| Compound | IC50 [1] | IC50 [2] | IC50 [3] | IC50 [4] | IC50 [5] | IC50 [6] | solubility [7] | IC50 [8] | IC50 (PBMC) | Ki [9] | inhibition [10] | Ki [11] | IC50 [12] |
| --- | --- | --- | --- | --- | --- | --- | --- | --- | --- | --- | --- | --- | --- |
| CC(=O)N(C)Cc1ccc2ccc(Cl)c(C3=C(c4cn(C)c5ccccc45)C(=O)NC3=O)c2c1 | 284 nM | > 316 nM | 41 nM | > 316 nM | 63 nM | > 316 nM | – | – | – | – | – | – | – |
| CN(Cc1ccc2ccc(Cl)c(C3=C(c4cn(C)c5ccccc45)C(=O)NC3=O)c2c1)C1CC1 | > 316 nM | > 316 nM | 60 nM | > 316 nM | 63 nM | > 316 nM | Insoluble | > 3550 nM | – | – | – | – | – |
| Cn1cc(C2=C(c3c(Cl)ccc4ccc(CN)cc34)C(=O)NC2=O)c2ccccc21 | 254 nM | > 316 nM | 3.3 nM | > 316 nM | 4.7 nM | > 316 nM | – | – | – | – | – | – | – |
| Cn1cc(C2=C(c3cccc4ccc(CN)cc34)C(=O)NC2=O)c2ccccc21 | > 316 nM | > 316 nM | 93 nM | > 316 nM | 73 nM | > 316 nM | – | – | – | – | – | – | – |
| CN(C)Cc1ccc2c(C3=C(c4cn(C)c5ccccc45)C(=O)NC3=O)c(Cl)ccc2c1 | 17 nM | 30 nM | 6.8 nM | – | 3.7 nM | 18 nM | Insoluble | 185 nM | 54 nM | – | – | – | – |
| CN(C)Cc1ccc2c(C3=C(c4c[nH]c5ccccc45)C(=O)NC3=O)c(Cl)ccc2c1 | – | – | 3.4 nM | 12 nM | 1.8 nM | 4.3 nM | Insoluble | 156 nM | 59 nM | – | – | – | – |
| Cn1cc(C2=C(c3c(Cl)ccc4ccc(CN5CCC5)cc34)C(=O)NC2=O)c2ccccc21 | 230 nM | 316 nM | 2 nM | 254 nM | 3.4 nM | 223 nM | – | – | – | – | – | – | – |
| CNCc1ccc2ccc(Cl)c(C3=C(c4cn(C)c5ccccc45)C(=O)NC3=O)c2c1 | 15 nM | 34 nM | 1.4 nM | 21 nM | 0.5 nM | 30 nM | – | – | – | – | – | – | – |
| Cn1cc(C2=C(c3cccc4cc(CN)ccc34)C(=O)NC2=O)c2ccccc21 | 92 nM | 308 nM | 133 nM | 276 nM | 136 nM | 225 nM | – | – | – | – | – | – | – |
| CN1CCN(c2nc(C3=C(c4c[nH]c5ccccc45)C(=O)NC3=O)c3ccccc3n2)CC1 [SOTRASTAURIN] | – | – | – | – | – | – | – | 81 nM | 28 nM | – | – | – | – |
| CN(C)Cc1ccc2ccc(Cl)c(C3=C(c4cn(C)c5ccccc45)C(=O)NC3=O)c2c1 | 214 nM | 565 nM | 3.7 nM | 263 nM | 4 nM | 402 nM | Insoluble | 402 nM | 277 nM | 1 nM | > 50% | 0.5 nM | 220 nM |
| COCCNCc1ccc2ccc(Cl)c(C3=C(c4cn(C)c5ccccc45)C(=O)NC3=O)c2c1 | 39 nM | 206 nM | 3.1 nM | 21 nM | 2.8 nM | 110 nM | – | – | – | – | – | – | – |
| Cc1ccc2ccc(CN)cc2c1C1=C(c2cn(C)c3ccccc23)C(=O)NC1=O | > 316 nM | > 316 nM | 42 nM | > 316 nM | 95 nM | > 316 nM | – | – | – | – | – | – | – |
| Cc1ccc2ccc(CN)cc2c1C1=C(c2c[nH]c3ccccc23)C(=O)NC1=O | > 316 nM | > 316 nM | 43 nM | > 316 nM | 49 nM | > 316 nM | – | – | – | – | – | – | – |
| CC(C)NCc1ccc2ccc(Cl)c(C3=C(c4cn(C)c5ccccc45)C(=O)NC3=O)c2c1 | 79 nM | 182 nM | 2.9 nM | 101 nM | 2.7 nM | 73 nM | – | – | – | – | – | – | – |
| NCc1ccc2cccc(C3=C(c4c[nH]c5ccccc45)C(=O)NC3=O)c2c1 | > 316 nM | > 316 nM | 75 nM | > 316 nM | 36 nM | > 316 nM | – | – | – | – | – | – | – |
| CN(C)Cc1ccc2ccc(Cl)c(C3=C(c4c[nH]c5ccccc45)C(=O)NC3=O)c2c1 | 303 nM | 316 nM | 0.7 nM | 216 nM | 0.5 nM | 182 nM | Insoluble | 708 nM | 406 nM | – | – | – | – |
